Source: patent US12059486B2, “Cosmetic compositions” (Rodan & Fields, LLC, priority 2021, dated 2024)

How the values were obtained:
[1] = test system: human epidermal melanocytes; assay: Melanin content in human epidermal melanocytes; format: cell-based; settings: 7 days
Protocol: Test materials were added to exponentially growing cultures and the experiment was terminated 7 days later.

[2] = Free radical scavenging activity (ABTS); format: biochemical; settings: 0.06 mg/mL; expressed as % water control
Protocol: Free radical scavenging activity was tested of different experimental conditions expressed as % water control. The positive control, ascorbic acid (Ref. 5), reached the expected level of inhibitory activity technically validating the experiments.

Type I Collagen = assay: Output of ECM components in adult human dermal fibroblast culture model (Method E): type I collagen; format: cell-based; settings: 10 ng/mL; day 7; corrected for cell numbers, % of water control
Protocol: (§1) Method E: Metabolism, Proliferation and Output of ECM Components in the Adult Human Dermal Fibroblast Culture Model. Test materials were dissolved in sterile cell culture medium at ×2 highest concentration tested and samples were added in triplicates to exponentially growing adult human dermal fibroblasts (aHDF; 7,000 cells/well of a 96 well plate; p.7 Cell Applications, San Diego, CA, cat. #106-05a; lot #3014). Cultures were maintained in DMEM/10% FBS. At the end of the experiments (day 7), macromolecules of interest were quantified either in the cell culture medium (decorin, type I collagen, type III collagen and hyaluronate) or on fixed cells (total insoluble proteins and elastin), by ELISA and sulforhodamine B, as indicated in Tables II-IV. Total insoluble (cytoskeletal) proteins were quantified to determine the effect of test materials on cell proliferation (cell numbers or cell #) according to the method described by Voigt et al., 2005. These values were also used to standardize decorin, type I collagen, type III collagen, elastin and hyaluronate output data to cell numbers, using the Equation 1: (Standardized Cell #)=[macromolecule of interest raw read out value]/cell number raw read out value] […]
(§2) This standardization was performed separately for each well. […] All colorimetric measurements were performed using Molecular Devices microplate reader MAX190 and SoftMax3.1.2PRO software. […]

Type III collagen = assay: Output of ECM components in adult human dermal fibroblast culture model (Method E): type III collagen; format: cell-based; settings: 10 ng/mL; day 7; corrected for cell numbers, % of water control
Protocol: as §1, §2

decorin = assay: Output of ECM components in adult human dermal fibroblast culture model (Method E): decorin; format: cell-based; settings: 10 ng/mL; day 7; corrected for cell numbers, % of water control
Protocol: as §1, §2

elastin = assay: Output of ECM components in adult human dermal fibroblast culture model (Method E): elastin; format: cell-based; settings: 10 ng/mL; day 7; fixed cells; corrected for cell numbers, % of water control
Protocol: as §1, §2

hyaluronate = assay: Output of ECM components in adult human dermal fibroblast culture model (Method E): hyaluronate; format: cell-based; settings: 10 ng/mL; day 7; corrected for cell numbers, % of water control
Protocol: as §1, §2

soluble decorin = assay: Soluble decorin in adult human dermal fibroblasts (Method F); format: cell-based; settings: 10 ng/mL; day 7; standardized to cell numbers, % of water control
Protocol: (§3) Method F: Test materials were dissolved in sterile cell culture medium at x2 highest concentration tested and samples were added in triplicates to exponentially growing adult human dermal fibroblasts (7,000 cells/well of a 96 well plate; p.7 Cell Applications, San Diego, CA, cat. #106-05a; lot #3014). Cultures were maintained in DMEM/10%FBS. At the end of the experiment (day 7), decorin was quantified in the cell culture medium (soluble fraction) and on fixed cells (insoluble fraction) by ELISA. Total insoluble (cytoskeletal) proteins were quantified to determine the effect of test materials on cell proliferation (cell numbers or cell #) according to the method described by Voigt et al., 2005. These values were also used to standardize decorin output data to cell numbers, using Equation 1. This standardization was performed separately for each well. Each experimental condition and control was assayed at least in triplicates. The effect of test materials on mitochondrial metabolism was measured with the MTT assay, which measures the activity of mitochondrial dehydrogenases, such as succinate dehydrogenase, implicated in the respiratory electron transport chain in mitochondria (Berridge & Tan; 1993).

insoluble decorin = assay: Insoluble decorin in adult human dermal fibroblasts (Method F); format: cell-based; settings: 10 ng/mL; day 7; standardized to cell numbers, % of water control
Protocol: as §3

For `O=c1cc(CO)occ1O` [Ref. 4, Kojic acid], the Melanin cell number-adjusted ([1]; 50 ug/mL) was 103 % Control and the Melanin cell number-adjusted ([1]; 200 ug/mL) was 46 % Control.

For `O=C1O[C@H]([C@@H](O)CO)C(O)=C1O` [Ref. 5, ascorbic acid], the ABTS [2] was 0 % Control.

With basic fibroblast growth factor [bFGF] the “Type I Collagen” value (Type I Collagen) was 67 % CTR, the “Type III collagen” value (Type III collagen) was 87 % CTR and the decorin (decorin) was 57 % CTR. It also gave an elastin (elastin) of 62 % CTR, a Hyaluronian (hyaluronate) of 72 % CTR and a Soluble decorin (soluble decorin) of 67 % CTR. The Insoluble decorin (insoluble decorin) was 87 % CTR.
